The text below walks through data of patent US20050137130A1, “Medical treatment” (priority 2001, published 2005).

Type in all cases: cell-based
The subject of experiment [1] is Mouse CD4+T-cells. Put plainly: ELISA assay for Notch signalling modulator activity in mouse CD4+ cells (IL-10, plate-bound hDelta1-IgG4Fc). The note with it: all concentrations tested, added at start of culture, day 3. How it is done: Spleens were removed from female Balb/c mice 8-10 weeks old and passed through a […] cell strainer into 20 ml R10F medium (R10F-RPMI 1640 media (Gibco Cat No 22409) plus 2 mM L-glutamine, 50 μg/ml Penicillin, 50 μg/ml Streptomycin, 5×10^−5 M β-mercapto-ethanol in 10% fetal calf serum). The cell suspension was spun (1150 rpm 5 min) and the media removed.
The cells were incubated for 4 minutes with 5 ml ACK lysis buffer (0.15M NH4Cl, […], O. 1 mM Na2EDTA in double distilled water) per spleen (to lyse red blood cells). The cells were then washed once with R10F medium and counted. CD4+ cells were purified from the suspensions by positive selection on a Magnetic Associated Cell Sorter (MACS) column (Miltenyi Biotec, Bisley, UK: Cat No 130-042-401) using CD4 (L3T4) beads (Miltenyi Biotec Cat No 130-049-201), according to the manufacturer's directions. […]
Mouse CD4+T-cells (prepared as above) were cultured at 2×10^5/well on anti-CD3 coated plates with or without plate-bound hDelta1-IgG4Fc fusion protein (prepared as described above) and soluble anti-CD28. […] Soluble hDelta1-IgG4Fc fusion protein was added into culture at the start at the concentrations shown and IL-10 was measured in supernatants on day 3 by ELISA using antibody pairs from R & D Systems (Abingdon, UK).
A general note: An ELISA detects its analyte on a solid surface through an enzyme-linked reagent.

The subject of experiment [2] is Notch signalling from Jagged1 (A20-Jagged cells, human Jagged1). As to the kind of experiment: Antagonism of A20-Jagged Notch signalling (N27#11 luciferase reporter). Particulars: A20-Jagged cells 1×10^5 per well; IgG4 as control. The text has this:
(§1) The IVS, IRES, Neo and pA elements were removed from plasmid pIRESneo2 (Clontech, USA) and inserted into a pUC cloning vector downstream of a chicken beta-actin promoter (eg see GenBank Accession No E02199). Mouse Delta-1 cDNA (eg see GenBank Accession No NM_007865) was inserted between the actin promoter and IVS elements and a sequence with multiple stop codons in all three reading frames was inserted between the Delta and IVS elements.
(§2) The resulting construct was transfected into A20 cells using electroporation and G418 to provide A20 cells expressing mouse Delta1 on their surfaces (A20-Delta).
Corresponding cells (A20-Jagged) were prepared using human Jagged1 cDNA (see e.g. GenBank Accession No U61276).
(§3) The procedure of Example was repeated using A20-Delta or A20-Jagged cells (1×10^5 per well) in place of CHO-Delta cells. IgG4 was used as a control.
On the technique in general: A reporter such as luciferase makes a cellular process visible.

The test system of experiment [3] is Notch signalling from Delta (A20-Delta cells, mouse Delta1). Put plainly: Antagonism of A20-Delta Notch signalling (N27#11 luciferase reporter). Particulars: A20-Delta cells 1×10^5 per well; IgG4 as control.
Description: as §1, §2, §3

On to “hDelta1-IgG4Fc: fusion protein comprising the extracellular domain of human Delta1 fused to the Fc domain of human IgG4 (SEQ ID NO: 5)”, for which, in experiment [1], the “effect of soluble protein on increased IL-10 release induced by plate-bound hDelta1-IgG4Fc” value is reported as “substantially reversed”. Besides, the “inhibition of Notch signalling from Jagged1” value in experiment [2] was “able to inhbit Notch signalling”. For the same substance, the “inhibition of Notch signalling from Delta” value in experiment [3] is “able to inhbit Notch signalling”.
